Test results published in patent US8278455B2, “5- or 6-substituted benzimidazole derivatives as inhibitors of respiratory syncytial virus replication” (Janssen Pharmaceutica N.V., priority 2003, dated 2012).

Each molecule was assayed on Respiratory Syncytial Virus (assay: In vitro screening for activity against Respiratory Syncytial Virus (MTT tetrazolium colorimetric assay, HeLa cells)). Conditions: human respiratory syncytial virus, 168 h; protection against RSV cytopathology in HeLa cells, 7 days after infection; pEC50 = −log of EC50 in molar units.
Assay type: cell-based
Description: The percent protection against cytopathology caused by viruses (antiviral activity or EC50) achieved by tested compounds and their cytotoxicity (CC50) are both calculated from dose-response curves. The selectivity of the antiviral effect is represented by the selectivity index (SI), calculated by dividing the CC50 (cytotoxic dose for 50% of the cells) by the EC50 (antiviral activity for 50% of the cells). The tables in the above experimental part list the category to which each of the prepared compounds belong. Compounds belonging to activity category “A” have an pEC50 (−log of EC50 when expressed in molar units) equal to or more than 7. Compounds belonging to activity category “B” have a pEC50 value between 6 and 7.
Automated tetrazolium-based […] assays were used for determination of EC50 and CC50 of test compounds. Flat-bottom, 96-well plastic microtiter trays were filled with 180 μl of Eagle's Basal Medium, supplemented with 5% FCS (0% for FLU) and 20 mM Hepes buffer. Subsequently, stock solutions (7.8× final test concentration) of compounds were added in 45 μl volumes to a series of triplicate wells so as to allow simultaneous evaluation of their effects on virus- and mock-infected cells. Five five-fold dilutions were made directly in the microtiter trays using a robot system. Untreated virus controls, and HeLa cell controls were included in each test. Approximately 100 TCID50 of Respiratory Syncytial Virus was added to two of the three rows in a volume of 50 μl. The same volume of medium was added to the third row to measure the cytotoxicity of the compounds at the same concentrations as those used to measure the antiviral activity. After two hours of incubation, a suspension (4×10^5 cells/ml) of HeLa cells was added to all wells in a volume of 50 μl. The cultures were incubated at 37° C. in a 5% CO2 atmosphere. Seven days after infection the cytotoxicity and the antiviral activity was examined spectrophotometrically. To each well of the microtiter tray, 25 μl of a solution of MTT (3-(4,5-dimethylthiazol-2-yl)-2,5-diphenyltetrazolium bromide) was added. The trays were further incubated at 37° C. for 2 hours, after which the medium was removed from each cup. Solubilization of the formazan crystals was achieved by adding 100 μl 2-propanol. Complete dissolution of the formazan crystals were obtained after the trays have been placed on a plate shaker for 10 min. Finally, the absorbances were read in an eight-channel computer-controlled photometer (Multiskan MCC, Flow Laboratories) at two wavelengths (540 and 690 nm). The absorbance measured at 690 nm was automatically subtracted from the absorbance at 540 nm, so as to eliminate the effects of non-specific absorption.

Row | Molecule | EC50 [nM]
1 | Cc1ccc(O)c(Cn2c(NC3CCN(C)CC3)nc3ccc(CNc4cc(Cl)cc(Cl)c4)cc32)n1 [Compound 2, 2-[6-[(3,5-dichloro-phenylamino)-methyl]-2-(1-methyl-piperidin-4-ylamino)-benzoimidazol-1-ylmethyl]-6-methyl-pyridin-3-ol] | 2

Same assay, conditions: protection against RSV cytopathology in HeLa cells, 7 days after infection; pEC50 = −log of EC50 in molar units

Row | Molecule | Activity
2 | 2-[6-[(1-ethylidene-3-methyl-penta-2,4-dienylamino)-methyl]-2-(1-methyl-piperidin-4-ylamino)-benzoimidazol-1-ylmethyl]-6-methyl-pyridin-3-ol [Compound 9] | 8.3
3 | Cc1cc(C)cc(N(CCO)Cc2ccc3nc(NC4CCN(C)CC4)n(Cc4nc(C)ccc4O)c3c2)c1 [Compound 1] | 9.4
4 | Cc1cc(C)cc(NCc2ccc3nc(NC4CCN(C)CC4)n(Cc4nc(C)ccc4O)c3c2)c1 [Compound 3] | 8.6
5 | Cc1ccc(O)c(Cn2c(NC3CCN(C)CC3)nc3ccc(CN(CCO)c4ccccc4)cc32)n1 [Compound 4] | 8.5
6 | Cc1cc(C)cc(N(CCN(C)C)Cc2ccc3nc(NC4CCN(C)CC4)n(Cc4nc(C)ccc4O)c3c2)c1 [Compound 5] | 8.5
7 | Cc1ccc(O)c(Cn2c(NC3CCN(C)CC3)nc3ccc(CNc4cccc(Br)c4)cc32)n1 [Compound 6] | 8.4
8 | Cc1ccc(O)c(Cn2c(NC3CCN(C)CC3)nc3ccc(CNc4ccccc4CO)cc32)n1 [Compound 7] | 8.4
9 | CCc1ccccc1NCc1ccc2nc(NC3CCN(C)CC3)n(Cc3nc(C)ccc3O)c2c1 [Compound 8] | 8.4
10 | Cc1ccc(O)c(Cn2c(NC3CCN(C)CC3)nc3ccc(CNc4ccc(S(N)(=O)=O)cc4)cc32)n1 [Compound 10] | 8.3
11 | Cc1ccc(O)c(Cn2c(NC3CCN(C)CC3)nc3ccc(CNc4cccc(Cl)c4)cc32)n1 [Compound 11] | 8.2
12 | Cc1ccc(O)c(Cn2c(NC3CCN(C)CC3)nc3ccc(CNc4ccc(C#N)cc4)cc32)n1 [Compound 12] | 8.2
13 | C#Cc1cccc(NCc2ccc3nc(NC4CCN(C)CC4)n(Cc4nc(C)ccc4O)c3c2)c1 [Compound 13] | 8.1
14 | Cc1ccc(O)c(Cn2c(NC3CCN(C)CC3)nc3ccc(CNc4ccccc4C(N)=O)cc32)n1 [Compound 14] | 8.1
15 | CCc1cccc(NCc2ccc3nc(NC4CCN(C)CC4)n(Cc4nc(C)ccc4O)c3c2)c1 [Compound 15] | 8
16 | Cc1ccc(O)c(Cn2c(NC3CCN(C)CC3)nc3ccc(CN(c4ccccc4)c4ccc(O)cc4)cc32)n1 [Compound 16] | 8
17 | CC(=O)c1ccc(NCc2ccc3nc(NC4CCN(C)CC4)n(Cc4nc(C)ccc4O)c3c2)cc1 [Compound 17] | 8
18 | Cc1ccc(O)c(Cn2c(NC3CCN(C)CC3)nc3ccc(CNc4cccc(F)c4)cc32)n1 [Compound 18] | 7.9
19 | CC(=O)c1cccc(NCc2ccc3nc(NC4CCN(C)CC4)n(Cc4nc(C)ccc4O)c3c2)c1 [Compound 19] | 7.9
20 | Cc1ccc(O)c(Cn2c(NC3CCN(C)CC3)nc3ccc(CNc4cccc(C)c4C)cc32)n1 [Compound 20] | 7.9
21 | Cc1ccc(O)c(Cn2c(NC3CCN(C)CC3)nc3ccc(CNc4ccccc4C(C)C)cc32)n1 [Compound 21] | 7.9
22 | Cc1ccc(O)c(Cn2c(NC3CCN(C)CC3)nc3ccc(CNc4ccccc4Br)cc32)n1 [Compound 22] | 7.9
23 | Cc1ccc(O)c(Cn2c(NC3CCN(C)CC3)nc3ccc(CNc4ccccc4F)cc32)n1 [Compound 23] | 7.9
24 | CCOC(=O)c1ccc(NCc2ccc3nc(NC4CCN(C)CC4)n(Cc4nc(C)ccc4O)c3c2)c(O)c1 [Compound 24] | 7.9
25 | CSc1cccc(NCc2ccc3nc(NC4CCN(C)CC4)n(Cc4nc(C)ccc4O)c3c2)c1 [Compound 25] | 7.9
26 | Cc1ccc(O)c(Cn2c(NC3CCN(C)CC3)nc3ccc(CNc4ccc(F)cc4)cc32)n1 [Compound 26] | 7.9

Row | Molecule | Activity
27 | Cc1ccc(O)c(Cn2c(NC3CCN(C)CC3)nc3ccc(CN(Cc4cnc[nH]4)c4ccc(Cl)cc4)cc32)n1 [Compound 27] | 7.9
28 | Cc1ccc(O)c(Cn2c(NC3CCN(C)CC3)nc3ccc(CCc4ccccc4)cc32)n1 [Compound 29] | 7.8
29 | Cc1ccc(O)c(Cn2c(NC3CCN(C)CC3)nc3ccc(CNc4ccccc4)cc32)n1 [Compound 30] | 7.8
30 | Cc1ccc(O)c(Cn2c(NC3CCN(C)CC3)nc3ccc(CNc4cccc5cccnc45)cc32)n1 [Compound 31] | 7.8
31 | Cc1ccc(O)c(Cn2c(NC3CCN(C)CC3)nc3ccc(CNc4ccc5c(c4)OCCO5)cc32)n1 [Compound 32] | 7.8
32 | Cc1ccc(O)c(Cn2c(NC3CCN(C)CC3)nc3ccc(CNc4ccc(CC#N)cc4)cc32)n1 [Compound 34] | 7.8
33 | COc1cc(NCc2ccc3nc(NC4CCN(C)CC4)n(Cc4nc(C)ccc4O)c3c2)cc(OC)c1 [Compound 36] | 7.7
34 | Cc1ccc(NCc2ccc3nc(NC4CCN(C)CC4)n(Cc4nc(C)ccc4O)c3c2)cc1 [Compound 37] | 7.7
35 | Cc1ccc(O)c(Cn2c(NC3CCN(C)CC3)nc3ccc(CNc4ccc(Br)cc4)cc32)n1 [Compound 38] | 7.7
36 | Cc1ccc(O)c(Cn2c(NC3CCN(C)CC3)nc3ccc(CN(CC(=O)O)c4ccccc4)cc32)n1 [Compound 39] | 7.7
37 | Cc1ccc(O)c(Cn2c(NC3CCN(C)CC3)nc3ccc(CNc4cccc(Cl)c4C)cc32)n1 [Compound 40] | 7.6
38 | Cc1ccc(O)c(Cn2c(NC3CCN(C)CC3)nc3ccc(CNc4ccc(C)c(C)c4)cc32)n1 [Compound 41] | 7.6
39 | Cc1ccc(O)c(Cn2c(NC3CCN(C)CC3)nc3ccc(CNc4ccccc4-c4ccccc4)cc32)n1 [Compound 42] | 7.6
40 | CCc1cc(C#N)ccc1NCc1ccc2nc(NC3CCN(C)CC3)n(Cc3nc(C)ccc3O)c2c1 [Compound 43] | 7.6
41 | Cc1ccc(O)c(Cn2c(NC3CCN(C)CC3)nc3ccc(CNc4ccc5c(c4)CCC5)cc32)n1 [Compound 45] | 7.5
42 | Cc1ccc(O)c(Cn2c(NC3CCN(C)CC3)nc3ccc(CNc4c(F)cccc4F)cc32)n1 [Compound 46] | 7.5
43 | CCc1cccc(C)c1NCc1ccc2nc(NC3CCN(C)CC3)n(Cc3nc(C)ccc3O)c2c1 [Compound 47] | 7.5
44 | Cc1ccc(O)c(Cn2c(NC3CCN(C)CC3)nc3ccc(CNc4ccc(Br)cc4F)cc32)n1 [Compound 48] | 7.5
45 | CC(=O)Nc1cccc(NCc2ccc3nc(NC4CCN(C)CC4)n(Cc4nc(C)ccc4O)c3c2)c1 [Compound 49] | 7.4
46 | Cc1ccc(O)c(Cn2c(NC3CCN(C)CC3)nc3ccc(CNc4ccc(F)c(F)c4)cc32)n1 [Compound 50] | 7.4
47 | Cc1ccc(O)c(Cn2c(NC3CCN(C)CC3)nc3ccc(CN(C)c4ccccc4)cc32)n1 [Compound 51] | 7.4
48 | CCc1cccc(CC)c1NCc1ccc2nc(NC3CCN(C)CC3)n(Cc3nc(C)ccc3O)c2c1 [Compound 52] | 7.4
49 | CC(=O)Nc1ccc(NCc2ccc3nc(NC4CCN(C)CC4)n(Cc4nc(C)ccc4O)c3c2)cc1 [Compound 53] | 7.4
50 | CCOC(=O)c1ccc(NCc2ccc3nc(NC4CCN(C)CC4)n(Cc4nc(C)ccc4O)c3c2)cc1 [Compound 54] | 7.4
51 | Cc1ccc(O)c(Cn2c(NC3CCN(C)CC3)nc3cc(NC(=O)c4cccnc4)ccc32)n1 [Compound 55] | 7.3
